Assay results published in patent US8329720B1 (Pisgah Laboratories, Inc., priority 2007, dated 2012).

How the values were obtained:
[1] = Intrinsic dissolution dose dumping profile (ethanol concentration in acidic media, FDA protocol); type: physicochemical; conditions: for dose dumping dissolution profile: 0.1N HCl with 0, 5, 20 and 40% ethanol; for dose dumping profile at the 5% ethanol condition: 5% ethanol in 0.1N HCl; for dose dumping profile at the 20% ethanol condition: 20% ethanol in 0.1N HCl; for active released: in approximately sixty minutes; for release: 40% EtOH in 0.1N HCl
Text: A general overview of this concern may be found at http://www.fda.gov/ohrms/dockets/AC/05/slides/2005-4187S2—02_Hussain.ppt. This Oct. 26, 2005 overview presentation by the deputy director OPS/CDER of the FDA and entitled “Preventing Alcohol Induced Dose Dumping is a Desired Product Design Feature” describes the dose-dumping phenomenon. Dose dumping can be employed by those with the deliberate intention of abusing the drug, but may also occur during the normal/moderate consumption of alcohol while taking a prescribed medication. Simply, dose dumping is that condition “in which the complete dose may be more rapidly released from the dosage form than intended, creating a potential safety risk”. Clearly, with the opioid narcotics, dose dumping for the intention of experiencing the “high” or rush, may have severe, even deadly consequences. The presentation further categorizes the results from dose dumping testing as either vulnerable, rugged or uncertain. If the dissolution profile in the presence of alcohol accelerates the release of the active ingredient, the product is classified as vulnerable and would likely not receive FDA market approval. In contrast, a rugged product design is achieved when the dissolution profile of the drug substance, again in the presence of alcohol, is identical to or is available to a lesser extent as compared to the control. The testing regimen recommended within the FDA's draft guidance includes determining the dissolution profile in 0.1N HCl solutions wherein the sample is tested in the medium and at increasing levels of ethanol, specifically at 5, 20 and 40% alcohol.
(§1) The opioid salts of the present invention were tested to determine their dissolution profile as a function of pH, and as a function of ethanol concentration in acidic media (dose dumping). To perform these experiments the buffered dissolution media and acidic ethanol solutions were prepared as identified herein, “Preparation of Solutions”. The test procedure was derived from the procedures cited in the United States Pharmacopeia and National Formulary (USP), numbers <1087> and <711>. The dose dumping procedure was adopted from the United States Food and Drug Administration's guidance regarding the dose dumping of oxymorphone. The sampling interval and regimen was defined and each sample analyzed by HPLC. Results from the HPLC analyses were plotted as a function of time and dissolution condition (FIG. 37 through FIG. 97 inclusive, and FIGS. 102-105, 109, 110, 114 and 115). This procedure was used to obtain the pH and dose dumping dissolution profiles disclosed herein. […] All activities within the procedure were conducted and executed for each of the compounds reported herein. Unless otherwise stated HPLC measurements were done and reported at ambient temperature and dissolution testing was done nominally at 37° C.
The following procedures were derived from the FDA Draft Guidance for Oxymorphone Hydrochloride (recommended in November, 2007).
(§2) The material which is to be subjected to dissolution is weighed using an analytical balance. 85.00-95.00 mg of the analyte was weighed and transferred to an International Crystals Laboratories fixed/static disk 316 stainless die with a 0.8 cm diameter die cavity. A hardened steel punch was then inserted into the cavity and the material was compressed at 2000 psi for 4-5 minutes using a bench top hydraulic press. The punch is then removed to expose the 0.5 cm^2 pellet surface. A Viton gasket is then placed around the threaded shoulder of the die and a polypropylene cap is threaded onto the die. This process can be repeated to generate as many pellets as is necessary for the experiment.
A Distek Dissolution System equipped with a model number TCS0200C temperature control system, was filled with water and set to a temperature of 37.3° C. The vessel cavities were then equipped with four 1 L flat-bottomed Distek dissolution vessels.

[2] = Intrinsic dissolution profile as a function of pH; type: physicochemical; conditions: result in words; for pH dissolution profile: 0.1N HCl (pH 1), pH 4.5 acetate buffer, pH 6.8 phosphate buffer, water, 37° C.; for dissolution behavior at the low pH condition: 0.1N HCl
Method: as §1
The following procedures were derived from USP <1087> Intrinsic Dissolution and USP <711> Dissolution methods, as well as manufacturer recommended procedures for use of the International Crystals Laboratories intrinsic dissolution disks.
as §2, with “45.00-55” for “85.00-95.00”
A Distek Dissolution System equipped with a model number TCS0200C temperature control system was filled with water and set to a temperature of 37.3° C. The vessel cavities were then equipped with four 1 L flat-bottomed Distek dissolution vessels. Four vessels were then filled with 500 mL of the following media: 0.1N HCl, pH 4.5 acetate buffer, pH 6.8 phosphate buffer, and USP grade water. The solutions were allowed to warm in the water bath for approximately 1 hour, but not exceeding 3 hours, or until the temperature of the media matched that of the water bath. Paddles were then mounted to the Distek stirring apparatus above the four dissolution vessels such that the distance between the paddle and the die face is 1 inch. The paddle speed is then set to 50 RPM.
The pellet prepared as described above was submerged into a vessel prepared as described above, with the pellet surface facing up (metal die up, polypropylene cap facing down). Forceps are used to aid this process so that the pellet apparatus can be gently placed into the bottom of the vessel. A timer is used to track the sampling intervals, and is started when the pellet is dropped into the solution. The lid to the dissolution apparatus is then lowered and the stirring apparatus is activated. Some planning is required in spacing out pellet drops such that each vessel can be sampled at the desired time intervals. Sampling is done by aspirating 10 mL of the solution using a Popper® Micro-Mate® Interchangeable Hypodermic Syringe equipped with a Vortex Pharma Group 10 micron cannula porous filter. This filter should be replaced after each use. Although sampling intervals can change from experiment to experiment, the following has been heavily utilized for the experiments described herein.

[3] = Modified dose dumping protocol: ethanol solutions in the absence of the 0.1N HCl media

## COc1ccc2c3c1O[C@H]1C(=O)CC[C@H]4[C@@H](C2)N(C)CC[C@]314.O=C(O)C(O)C(O)C(=O)O [hydrocodone bitartrate, reference compound]
[1]; result in words
  dose dumping dissolution profile: exhibit dose dumping propensities
[2]
  pH dissolution profile: immediate release (IR) characteristics

## CN(C)CCCN1c2ccccc2CCc2ccccc21.CN(C)CCCN1c2ccccc2CCc2ccccc21.O=C(O)c1cc2ccccc2c(Cc2c(O)c(C(=O)O)cc3ccccc23)c1O [imipramine pamoate, reference compound]
[1]; result in words
  dose dumping dissolution profile: exhibited dose dumping properties

## COc1ccc2c3c1O[C@H]1C(=O)CC[C@@]4(O)[C@@H](C2)N(C)CC[C@]314.Cl [oxycodone hydrochloride, reference compound]
[1]; result in words
  dose dumping dissolution profile: apparent solution equilibrium was obtained within minutes
[1]; 0.1 N HCl without EtOH, result in words
  dissolution in the control condition: complete dissolution within minutes
[1]; at each ethanol level, comparing FIGS. 58 and 59
  enhancement of the release profile by the acidic media: more than 20 % (absolute)
[3]; 40% EtOH (about 80 proof), no 0.1N HCl
  amount of oxycodone extracted / opiate immediately released: about 50%
[2]
  pH dissolution profile: immediate release (IR) characteristics

## Amorphous Hydrocodone Pamoate Acetone Solvate [solvated amorphous form]
[1]; result in words
  dose dumping dissolution profile: somewhat erratic compared with Form II

## Amorphous Hydrocodone Pamoate Form I [amorphous Form I]
[1]; result in words
  dose dumping dissolution profile: somewhat erratic compared with Form II

## Amorphous Hydrocodone Pamoate Form II
[1]; result in words
  dose dumping profile at the 5% ethanol condition: slow (and essentially identical) dissolution response
  dose dumping profile at the 20% ethanol condition: slow (and essentially identical) dissolution response
[2]
  dissolution behavior at the low pH condition: ranks between that observed for Form I and the acetone solvated form

## Hydrocodone Xinafoate
[2]
  pH dissolution profile: extended release at pH 1, and independent release as the pH increases

## Oxycodone Pamoate [amorphous oxycodone pamoate]
[1]; 0.1N HCl media, no EtOH
  time to complete (full) release of the opiate: about one
[1]; result in words
  dose dumping dissolution profile: no dose dumping benefit
[3]; 0.1N HCl with 0% EtOH, and 5, 20, 40% EtOH without acid, result in words
  dissolution profile as a function of ethanol concentration: slow linear process
[3]; 40% EtOH, over about one hour
  opiate released: approximately 60%
[3]; 40% ethanol condition, FIG. 62
  pamoate released (apparent pamoate equilibrium solubility): about 85%
  time to apparent pamoate equilibrium solubility: approximately 45 minutes

## Oxycodone Pamoate [polymorphic form of oxycodone pamoate]
[1]; 0.1N HCl containing 5% EtOH
  active released: about 70%
[1]; 0.1N HCl
  active released: about 70%
[1]; 20% EtOH in 0.1N HCl, reached in about 30 minutes
  equilibrium solubility (release): ~10%
[1]; after 3 hours
  release: approximately 40%
[1]; after about 80 minutes
  release: ~10%
[2]
  pH dissolution profile: essentially identical pH dissolution profile as the amorphous form

## Oxycodone Xinafoate
[1]; result in words
  dose dumping dissolution profile: dose dumps immediately at the higher EtOH concentrations
[2]
  pH dissolution profile: poor dissolution profile at pH 1 with a gradual release as the pH increases

## Polymorphic Hydrocodone Pamoate Form II
[1]; result in words
  dose dumping profile at the 5% ethanol condition: essentially identical to the 0.1N HCl condition
  dose dumping profile at the 20% ethanol condition: did not accelerate dose dumping
[1]; 40% ethanol in 0.1N HCl, result in words
  dose dumping profile at the 40% ethanol condition: did not promote dose dumping
[2]
  dissolution behavior at the low pH condition: slower release than Form I
